Several values for one entry are separate records, joined by “and”; a condition that tells them apart may be missing. Identical values can stand only once. Like-named read-outs stand apart in the source and are kept apart here.
Experiments:
P. aeruginosa = assay: Checkerboard assay (antibiotic potentiation); type: cell-based, Pseudomonas aeruginosa; details: P. aeruginosa PAO1
A. baumannii = assay: Checkerboard assay (antibiotic potentiation); type: cell-based, Acinetobacter baumannii
P. aeruginosa 259-96916 = assay: Time-kill kinetics assay
[1] = test system: MDR Gram-negative bacteria clinical isolates; assay: Checkerboard assay, summary over strains; type: cell-based; details: of all 14 clinical isolates; number (%)
[2] = A. baumannii 110193, antibiotic + compound 1
[3] = A. baumannii ATCC 17978, 0% FBS, zoliflodacin + compound 1
[4] = A. baumannii ATCC 17978, [Mg2+] 25 mM, zoliflodacin + compound 1
[5] = A. baumannii ATCC 17978, [Mg2+] 0.4–0.5 mM, zoliflodacin + compound 1
[6] = A. baumannii ATCC 17978, antibiotic + compound 1

## C[C@@H]1CN2c3c(cc4c(N5C(=O)OC[C@@H]5C)noc4c3F)CC3(C(=O)NC(=O)NC3=O)[C@H]2[C@H](C)O1 [Zoliflodacin]
P. aeruginosa; [Mg2+] 0.4–0.5 mM, zoliflodacin + compound 1
  Interpretation: Synergy (FIC indices of ≤0.5 is synergistic)
P. aeruginosa; [Mg2+] 0.4–0.5 mM, zoliflodacin MIC with 8 µg/mL (5 µM) compound 1
  MICantibiotic + compound: 8 µg/mL
P. aeruginosa; [Mg2+] 0.4–0.5 mM, zoliflodacin alone
  MICantibiotic: >128 µg/mL
P. aeruginosa; antibiotic + compound 1
  FIC index: x < 0.125
  Interpretation: Synergy (FIC indices of ≤0.5 is synergistic)
P. aeruginosa; antibiotic + compound 3
  Interpretation: Additive (0.5 < × ≤ 4 is additive)
P. aeruginosa; antibiotic MIC with 8 µg/mL (5 µM) compound 1
  MICantibiotic + compound: 8 µg/mL
P. aeruginosa; antibiotic MIC with 8 µg/mL (5 µM) compound 3
  MICantibiotic + compound: 128 µg/mL
P. aeruginosa; antibiotic alone
  MICantibiotic: 128 µg/mL and >128 µg/mL
P. aeruginosa; of antibiotic by 8 µg/mL (5 µM) compound 1
  Potentiation: ≥32-fold
P. aeruginosa; of antibiotic by 8 µg/mL (5 µM) compound 3
  Potentiation: 1 fold
A. baumannii
  MICantibiotic + compound: 0.031 µg/mL
  Potentiation: ≥128-fold
A. baumannii; A. baumannii 92247 (colistin-resistant), antibiotic + compound 1
  Interpretation: Synergy (FIC indices of ≤0.5 is synergistic)
A. baumannii; A. baumannii 92247 (colistin-resistant), antibiotic MIC with 4 µg/mL (2 µM) compound 1
  MICantibiotic + compound: 0.25 µg/mL
A. baumannii; A. baumannii 92247 (colistin-resistant), antibiotic alone
  MICantibiotic: 4 µg/mL
A. baumannii; A. baumannii 92247 (colistin-resistant), of antibiotic by 4 µg/mL (2 µM) compound 1
  Potentiation: ≥16-fold
A. baumannii; [2]
  FIC index: 0.156
  Interpretation: Synergy (FIC indices of ≤0.5 is synergistic)
A. baumannii; A. baumannii 110193, antibiotic MIC with 4 µg/mL (2 µM) compound 1
  MICantibiotic + compound: 8 µg/mL
A. baumannii; A. baumannii 110193, antibiotic alone
  MICantibiotic: 256 µg/mL
A. baumannii; A. baumannii 110193, of antibiotic by 4 µg/mL (2 µM) compound 1
  Potentiation: 32 fold
A. baumannii; A. baumannii AB027, antibiotic + compound 1
  Interpretation: Synergy (FIC indices of ≤0.5 is synergistic)
A. baumannii; A. baumannii AB027, antibiotic MIC with 4 µg/mL (2 µM) compound 1
  MICantibiotic + compound: 0.25 µg/mL
A. baumannii; A. baumannii AB027, antibiotic alone
  MICantibiotic: 16 µg/mL
A. baumannii; A. baumannii AB027, of antibiotic by 4 µg/mL (2 µM) compound 1
  Potentiation: 64 fold
A. baumannii; A. baumannii AB031, antibiotic + compound 1
  Interpretation: Synergy (FIC indices of ≤0.5 is synergistic)
A. baumannii; A. baumannii AB031, antibiotic MIC with 4 µg/mL (2 µM) compound 1
  MICantibiotic + compound: 4 µg/mL
A. baumannii; A. baumannii AB031, antibiotic alone
  MICantibiotic: 128 µg/mL
A. baumannii; A. baumannii AB031, of antibiotic by 4 µg/mL (2 µM) compound 1
  Potentiation: 32 fold
A. baumannii; A. baumannii ATCC 17978, 0% FBS, of zoliflodacin by 4 µg/mL compound 1
  Potentiation: ≥128-fold
A. baumannii; [3]
  FIC index: 0.258
  Interpretation: Synergy (FIC indices of ≤0.5 is synergistic)
A. baumannii; A. baumannii ATCC 17978, 0% FBS, zoliflodacin MIC with 4 µg/mL compound 1
  MICantibiotic + compound: 0.031 µg/mL
A. baumannii; A. baumannii ATCC 17978, 0% FBS, zoliflodacin alone
  MICantibiotic: 4 µg/mL
A. baumannii; A. baumannii ATCC 17978, 10% FBS, of zoliflodacin by 4 µg/mL compound 1
  Potentiation: 32 fold
A. baumannii; A. baumannii ATCC 17978, 10% FBS, zoliflodacin + compound 1
  Interpretation: Synergy (FIC indices of ≤0.5 is synergistic)
A. baumannii; A. baumannii ATCC 17978, 10% FBS, zoliflodacin MIC with 4 µg/mL compound 1
  MICantibiotic + compound: 0.5 µg/mL
A. baumannii; A. baumannii ATCC 17978, 10% FBS, zoliflodacin alone
  MICantibiotic: 16 µg/mL
A. baumannii; A. baumannii ATCC 17978, 25% FBS, of zoliflodacin by 4 µg/mL compound 1
  Potentiation: 8 fold
A. baumannii; A. baumannii ATCC 17978, 25% FBS, zoliflodacin + compound 1
  Interpretation: Synergy (FIC indices of ≤0.5 is synergistic)
A. baumannii; A. baumannii ATCC 17978, 25% FBS, zoliflodacin MIC with 4 µg/mL compound 1
  MICantibiotic + compound: 2 µg/mL
A. baumannii; A. baumannii ATCC 17978, 25% FBS, zoliflodacin alone
  MICantibiotic: 16 µg/mL
A. baumannii; A. baumannii ATCC 17978, 50% FBS, of zoliflodacin by 4 µg/mL compound 1
  Potentiation: 2 fold
A. baumannii; A. baumannii ATCC 17978, 50% FBS, zoliflodacin + compound 1
  Interpretation: Additive (0.5 < × ≤ 4 is additive)
A. baumannii; A. baumannii ATCC 17978, 50% FBS, zoliflodacin MIC with 4 µg/mL compound 1
  MICantibiotic + compound: 32 µg/mL
A. baumannii; A. baumannii ATCC 17978, 50% FBS, zoliflodacin alone
  MICantibiotic: 64 µg/mL
A. baumannii; A. baumannii ATCC 17978, [Mg2+] 25 mM, of zoliflodacin by 4 µg/mL compound 1
  Potentiation: ≥64-fold
A. baumannii; [4]
  FIC index: x < 0.063
  Interpretation: Synergy (FIC indices of ≤0.5 is synergistic)
A. baumannii; A. baumannii ATCC 17978, [Mg2+] 25 mM, zoliflodacin MIC with 4 µg/mL compound 1
  MICantibiotic + compound: 4 µg/mL
A. baumannii; A. baumannii ATCC 17978, [Mg2+] 25 mM, zoliflodacin alone
  MICantibiotic: >32 µg/mL
A. baumannii; A. baumannii ATCC 17978, [Mg2+] 0.4–0.5 mM, of zoliflodacin by 4 µg/mL compound 1
  Potentiation: ≥128-fold
A. baumannii; [5]
  FIC index: 0.258
  Interpretation: Synergy (FIC indices of ≤0.5 is synergistic)
A. baumannii; A. baumannii ATCC 17978, [Mg2+] 0.4–0.5 mM, zoliflodacin MIC with 4 µg/mL compound 1
  MICantibiotic + compound: 0.031 µg/mL
A. baumannii; A. baumannii ATCC 17978, [Mg2+] 0.4–0.5 mM, zoliflodacin alone
  MICantibiotic: 4 µg/mL
A. baumannii; [6]
  FIC index: 0.258
  Interpretation: Synergy (FIC indices of ≤0.5 is synergistic)
A. baumannii; A. baumannii ATCC 17978, antibiotic + compound 3
  Interpretation: Additive (0.5 < × ≤ 4 is additive)
A. baumannii; A. baumannii ATCC 17978, antibiotic MIC with 8 µg/mL (5 µM) compound 3
  MICantibiotic + compound: 2 µg/mL
A. baumannii; A. baumannii ATCC 17978, antibiotic alone
  MICantibiotic: 2 µg/mL and 4 µg/mL
A. baumannii; A. baumannii ATCC 17978, of antibiotic by 8 µg/mL (5 µM) compound 3
  Potentiation: 1 fold
P. aeruginosa 259-96916; 0.5 µg/mL zoliflodacin + 8 µg/mL (5 µM) compound 1
  time-kill outcome: bacteriostatic effect
P. aeruginosa 259-96916; 8 µg/mL zoliflodacin + 8 µg/mL (5 µM) compound 1
  time-kill outcome: complete sterilization was achieved after 24 h
P. aeruginosa 259-96916; monotherapy at 8 µg/mL, LB, 37°C, up to 24 h
  time-kill outcome: growth curve similar to that of untreated bacteria
P. aeruginosa 259-96916; zoliflodacin + compound 1, both 8 µg/mL, after 24 h
  decrease in bacterial load from the starting inoculum and from the most active monotherapy: ≥ 2 log10
[1]
  clinical isolates in which the antibiotic was synergized by compound 1: 12 (86%) strains

Reference: paper PMC12587545, “Noncytotoxic polymyxin derivatives enhance antibiotic action against multidrug-resistant Gram-negative bacteria” (Antimicrobial Agents and Chemotherapy, 2025)
